Molecular target: T1, EGFR (epidermal growth factor receptor tyrosine kinase) (Homo sapiens, UniProt P00533)
T1 construct: EGFR cytoplasmic domain (EGFR-CD, amino acids 645–1186), (His)6-tagged
Assay: EGFR-TK autophosphorylation assay, DELFIA/time-resolved fluorometry, recombinant enzyme
Type: biochemical
Conditions: read-out: In Vitro EGFR Activity(nM) *

T1 sequence (P00533 669-1210): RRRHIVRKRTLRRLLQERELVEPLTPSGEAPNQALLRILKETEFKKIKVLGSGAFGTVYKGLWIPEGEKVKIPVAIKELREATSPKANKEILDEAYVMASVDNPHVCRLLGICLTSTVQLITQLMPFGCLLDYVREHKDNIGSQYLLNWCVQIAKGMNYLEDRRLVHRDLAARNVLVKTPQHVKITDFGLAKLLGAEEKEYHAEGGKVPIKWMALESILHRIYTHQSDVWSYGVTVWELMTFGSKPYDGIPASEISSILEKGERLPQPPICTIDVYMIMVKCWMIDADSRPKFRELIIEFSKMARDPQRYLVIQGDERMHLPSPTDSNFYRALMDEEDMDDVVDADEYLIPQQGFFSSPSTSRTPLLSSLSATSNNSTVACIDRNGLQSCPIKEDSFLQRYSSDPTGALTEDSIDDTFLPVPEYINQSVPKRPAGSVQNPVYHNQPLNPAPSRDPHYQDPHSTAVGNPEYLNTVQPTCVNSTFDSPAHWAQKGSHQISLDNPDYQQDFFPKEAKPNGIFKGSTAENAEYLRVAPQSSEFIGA

- IC50: 98.6 nM
SMILES: COC(=O)/C=C/c1ccc(O)cc1OC [compound 1, 7-hydroxy, 5-methoxy, methyl cinnamate]
